Data from ChEMBL document CHEMBL4368896, “Thiosemicarbazones with tyrosinase inhibitory activity” (Medchemcomm, 2019).
Where “and” joins values, the source holds several entries; their conditions need not be identical. Identical values can stand only once. Blank lines part the entries; values can stand above or below the molecule they belong to.

Key:
[1] = target: T1, Tyrosinase (Agaricus bisporus, UniProt O42713); experiment: Non-competitive inhibition of mushroom tyrosinase using L-dopa as substrate preincubated for 5 mins followed by substrate addition and measured for 5 mins
T1 sequence (O42713 whole entry): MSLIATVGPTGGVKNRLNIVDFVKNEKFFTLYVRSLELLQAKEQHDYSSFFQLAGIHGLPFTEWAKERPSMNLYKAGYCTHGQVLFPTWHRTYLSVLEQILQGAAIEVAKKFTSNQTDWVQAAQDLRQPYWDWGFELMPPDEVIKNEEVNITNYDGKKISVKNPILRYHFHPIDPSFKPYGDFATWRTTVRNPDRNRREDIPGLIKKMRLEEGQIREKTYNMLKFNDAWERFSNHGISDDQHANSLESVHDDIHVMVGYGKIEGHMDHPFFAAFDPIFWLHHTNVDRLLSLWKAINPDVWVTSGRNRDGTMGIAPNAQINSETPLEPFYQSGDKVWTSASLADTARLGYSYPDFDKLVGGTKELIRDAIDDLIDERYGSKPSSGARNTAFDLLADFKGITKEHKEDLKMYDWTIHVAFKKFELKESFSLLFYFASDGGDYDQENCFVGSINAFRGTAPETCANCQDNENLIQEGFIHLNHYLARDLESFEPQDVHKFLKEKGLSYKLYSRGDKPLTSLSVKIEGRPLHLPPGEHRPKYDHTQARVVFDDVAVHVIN

[2] = target: T2, Tyrosinase (Mus musculus, UniProt P11344); experiment: Inhibition of tyrosinase in mouse B16 cells using L-DOPA as substrate preincubated for 72 hrs followed by substrate addition and measured after 30 mins; format: cell-based
T2 sequence (P11344 whole entry): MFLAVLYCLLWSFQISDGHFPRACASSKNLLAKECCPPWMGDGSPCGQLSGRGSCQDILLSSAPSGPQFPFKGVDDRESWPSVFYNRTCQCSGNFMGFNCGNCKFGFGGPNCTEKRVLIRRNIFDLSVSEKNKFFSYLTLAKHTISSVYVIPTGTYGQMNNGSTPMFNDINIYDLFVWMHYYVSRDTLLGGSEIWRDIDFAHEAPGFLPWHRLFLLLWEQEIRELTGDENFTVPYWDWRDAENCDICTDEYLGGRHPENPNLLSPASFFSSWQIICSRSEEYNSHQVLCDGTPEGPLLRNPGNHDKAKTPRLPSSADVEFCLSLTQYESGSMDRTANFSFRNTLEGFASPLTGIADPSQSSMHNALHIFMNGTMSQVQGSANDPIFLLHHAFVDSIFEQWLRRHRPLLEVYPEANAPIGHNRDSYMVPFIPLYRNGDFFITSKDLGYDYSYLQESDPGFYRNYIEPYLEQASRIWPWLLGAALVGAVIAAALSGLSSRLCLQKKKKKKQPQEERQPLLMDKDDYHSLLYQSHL

[3] = target: T3, Tyrosinase (Agaricus bisporus) (UniProt O42713); experiment: (§1) Mixed-type inhibition of mushroom tyrosinase using L-dopa as substrate preincubated for 5 mins followed by substrate addition and measured for 3 mins
T3 sequence (whole entry): T1 sequence (O42713 whole entry)

[4] = target: T1, Tyrosinase; experiment: as §1
[5] = target: T1, Tyrosinase; experiment: Inhibition of mushroom tyrosinase using L-dopa as substrate measured for 150 secs by spectrophotometric analysis
[6] = target: T1, Tyrosinase; experiment: Inhibition of mushroom tyrosinase using L-dopa as substrate preincubated for 10 mins followed by substrate addition and measured for 1 min
[7] = target: T3, Tyrosinase (Agaricus bisporus); experiment: Mixed-type inhibition of mushroom tyrosinase after 10 mins by Lineweaver-Burk plot analysis
[8] = target: T1, Tyrosinase; experiment: Reversible competitive inhibition of mushroom tyrosinase after 10 mins by Lineweaver-Burk plot analysis
[9] = target: T3, Tyrosinase (Agaricus bisporus); experiment: (§2) Reversible mixed-type inhibition of mushroom tyrosinase by Lineweaver-Burk plot analysis
[10] = target: T1, Tyrosinase; experiment: as §2
[11] = target: T1, Tyrosinase; experiment: Inhibition of mushroom tyrosinase using L-dopa as substrate preincubated for 2 mins followed by substrate addition and measured for 5 mins by spectrophotometric analysis
[12] = target: T1, Tyrosinase
[13] = target: T1, Tyrosinase; experiment: Non-competitive inhibition of mushroom tyrosinase by Lineweaver-Burk plot analysis
[14] = target: T1, Tyrosinase; experiment: Inhibition of mushroom tyrosinase monophenolase activity using L-tyrosine as substrate
[15] = target: T1, Tyrosinase; experiment: Reversible competitive inhibition of mushroom tyrosinase using L-dopa as substrate preincubated for 2 mins followed by substrate addition and measured for 5 mins by Lineweaver-Burk plot analysis
[16] = target: T1, Tyrosinase; experiment: Reversible inhibition of mushroom tyrosinase after 10 mins by Lineweaver-Burk plot analysis
[17] = target: T1, Tyrosinase; experiment: Inhibition of mushroom tyrosinase diphenolase activity using L-dopa as substrate after 10 mins by spectrophotometric analysis
[18] = target: T1, Tyrosinase; experiment: Inhibition of mushroom tyrosinase monophenolase activity using L-tyrosine as substrate after 10 mins by spectrophotometric analysis
[19] = target: T1, Tyrosinase; remark: listed apart in the source
Description: (§5) Reversible mixed-type inhibition of mushroom tyrosinase using L-dopa as substrate by Lineweaver-Burk plot analysis

[20] = target: T3, Tyrosinase (Agaricus bisporus)
Description: as §5

[21] = target: T3, Tyrosinase (Agaricus bisporus); experiment: (§3) Mixed-type inhibition of mushroom tyrosinase using L-tyrosine as substrate by Lineweaver-Burk plot analysis
[22] = target: T1, Tyrosinase; experiment: as §3
[23] = target: T3, Tyrosinase (Agaricus bisporus); experiment: (§4) Mixed-type inhibition of mushroom tyrosinase by Lineweaver-Burk plot analysis
[24] = target: T1, Tyrosinase; experiment: as §4

Compound: CCC(=O)OCc1csc(/C=N/NC(N)=S)c1
- IC50 [5]: 161 nM

Compound: NC(=S)N/N=C/c1ccc(-c2ccccc2)s1
- IC50 [5]: 670 nM

Compound: CCC/C(=N\NC(N)=S)c1ccccc1
- IC50 [2]: < 1000 nM

Compound: CCCCCC/C(=N\NC(N)=S)c1ccccc1
- IC50 [2]: < 1000 nM

Compound: C/C(=N\N=C(/N)S)c1ccccc1 [PHENYL(METHYL)THIOSEMICARBAZONE]
- Kis [7]: 0.83 µM and 1.4 µM
- IC50 [2]: 2000 nM
- Ki [8]: 380 nM

Compound: NC(=S)N/N=C/c1cc(COC(=O)C2CCCC2)cs1
- IC50 [5]: 140 nM

Compound: NC(=S)N/N=C/C=C/c1ccccc1
- Kis [9]: 8.85 µM
- Ki [10]: 4.45 µM

Compound: NC(=S)N/N=C/c1ccc(O)cc1O
- IC50 [6]: 180 nM

Compound: CCCC/C(=N\NC(N)=S)c1ccccc1
- IC50 [2]: 1200 nM

Compound: CNC(=S)N/N=C(\C)c1ccccc1
- IC50 [11]: 213 µM

Compound: CC(C)/C(=N\NC(N)=S)c1ccccc1
- IC50 [2]: < 2300 nM

Compound: CN(C)c1ccc(/C=N/NC(=S)Nc2ccccc2)cc1
- IC50 [12]: 800 nM
- Ki [13]: 770 nM
- IC50 [14]: 1.78 µM

Compound: NC(=S)N/N=C/c1ccc(O)cc1Br
- IC50 [6]: 330 nM

Compound: CCOCc1csc(/C=N/NC(N)=S)c1
- IC50 [5]: 490 nM

Compound: NC(=S)N/N=C/c1cc(COC=O)cs1
- IC50 [5]: 196 nM

Compound: NC(=S)N/N=C/c1cc(CO)cs1
- IC50 [5]: 670 nM

Compound: CC(C)C/C(=N\NC(N)=S)c1ccccc1
- IC50 [2]: < 1000 nM

Compound: CCCCCCCCCCC/C(=N\NC(N)=S)c1ccccc1
- IC50 [2]: < 1000 nM

Compound: COCc1csc(/C=N/NC(N)=S)c1
- IC50 [5]: 740 nM

Compound: CNC(=S)N/N=C(\C)c1ccc(O)cc1O
- IC50 [11]: 6 µM
- Ki [15]: 5 µM

Compound: CNC(=S)N/N=C(\C)c1ccc(OC)cc1
- IC50 [11]: 65 µM

Compound: C/C(=N\NC(N)=S)c1ccco1
- IC50 [12]: 824 nM

Compound: C/C(=N\NC(N)=S)c1ccc[nH]1
- IC50 [12]: 4150 nM

Compound: CC(=O)OCc1csc(/C=N/NC(N)=S)c1
- IC50 [5]: 340 nM

Compound: C/C(=N\NC(N)=S)c1cccs1
- IC50 [12]: 1410 nM

Compound: NC(=S)N/N=C/c1cccs1
- IC50 [12]: 430 nM
- Ki [19]: 167000 nM
- Kis [20]: 2.59 µM

Compound: COc1ccc(OC)c(/C=N/NC(N)=S)c1
- IC50 [6]: > 50000 nM

Compound: CC/C(=N\N=C(\N)S)c1ccccc1
- IC50 [2]: < 1000 nM

Compound: CCCCC/C(=N\NC(N)=S)c1ccccc1
- IC50 [2]: < 1000 nM

Compound: CCCC(=O)OCc1csc(/C=N/NC(N)=S)c1
- IC50 [5]: 105 nM

Compound: N=C(S)N/N=C/c1ccc(Oc2ccc(F)cc2)cc1
- IC50 [6]: 1460 nM

Compound: NC(=S)N/N=C/c1cc(COC(=O)c2ccccc2)cs1
- IC50 [5]: 68 nM

Compound: NC(=S)N/N=C/c1ccco1
- IC50 [12]: 2350 nM
- Ki [19]: 600 nM
- Kis [20]: 1.18 µM

Compound: CNC(=S)N/N=C(\C)c1ccc(OC)cc1O
- IC50 [11]: 18 µM

Compound: NC(=S)N/N=C/c1ccc[nH]1
- IC50 [12]: 3990 nM
- Ki [19]: 80 nM
- Kis [20]: 0.29 µM

Compound: CCCCC(=O)OCc1csc(/C=N/NC(N)=S)c1
- IC50 [5]: 110 nM

Compound: CNC(=S)N/N=C(\C)c1ccccc1O
- IC50 [11]: 108 µM

Compound: NC(=S)N/N=C/c1cc(COC(=O)C2CCCCC2)cs1
- IC50 [5]: 136 nM

Continued, values first:

- Ki [1]: 3.7 µM
- IC50 [2]: 10200 nM
- Kis [3]: 93 µM
- Ki [4]: 930 nM
Compound: NC(=S)N/N=C/c1ccccc1 [PHENYLTHIOSEMICARBAZONE]

- IC50 [6]: 4880 nM
Compound: COc1ccc(/C=N/NC(N)=S)cc1O

- IC50 [6]: 1310 nM
Compound: CCCCOc1ccc(/C=N/NC(N)=S)cc1

- IC50 [6]: 370 nM
Compound: NC(=S)N/N=C/c1ccc(OCOCCO)cc1

- IC50 [6]: 380 nM
Compound: NC(=S)N/N=C/c1ccccc1O

- IC50 [6]: 1090 nM
Compound: CCCCCOc1ccc(/C=N/NC(N)=S)cc1

- IC50 [6]: 280 nM
Compound: NC(=S)N/N=C/c1ccc(Br)cc1

- IC50 [6]: 2210 nM
Compound: CC(C)COc1ccc(/C=N/NC(N)=S)cc1

- IC50 [6]: 3900 nM
Compound: NC(=S)N/N=C/c1cccc(O)c1

- IC50 [12]: 1220 nM
- Ki [13]: 1200 nM
- IC50 [14]: 15.4 µM
Compound: NC(=S)N/N=C/c1ccccc1Cl

- IC50 [6]: 750 nM
Compound: COCCOc1ccc(/C=N/NC(N)=S)cc1

- IC50 [6]: 410 nM
Compound: COCCCCOc1ccc(/C=N/NC(N)=S)cc1

- IC50 [6]: 340 nM
Compound: COCCOCCOc1ccc(/C=N/NC(N)=S)cc1

- IC50 [6]: 1290 nM
Compound: C=CCOc1ccc(/C=N/NC(N)=S)cc1

- IC50 [6]: 5680 nM
Compound: COc1cc(/C=N/NC(N)=S)ccc1O

- Ki [16]: 1470 nM
- Kis [7]: 15.1 µM
- IC50 [2]: 139000 nM
- IC50 [6]: 1480 nM
- IC50 [17]: 2.62 µM
- IC50 [18]: 7 µM
Compound: COc1ccc(/C=N/NC(N)=S)cc1

- IC50 [6]: 980 nM
Compound: NC(=S)N/N=C/c1ccc(Oc2ccccc2)cc1

- IC50 [6]: 920 nM
Compound: CCCCOCCOc1ccc(/C=N/NC(N)=S)cc1

- IC50 [6]: 940 nM
Compound: NC(=S)N/N=C/c1ccc(OCOC(CO)CO)cc1

- IC50 [6]: > 40000 nM
Compound: NC(=S)N/N=C/c1ccc(O)c(O)c1

- IC50 [6]: 3030 nM
Compound: CCCOc1ccc(/C=N/NC(N)=S)cc1

- IC50 [6]: 530 nM
Compound: NC(=S)N/N=C/c1ccc(OCCO)cc1

- Ki [16]: 2820 nM
- Kis [7]: 6.79 µM
- IC50 [6]: 410 nM
- IC50 [17]: 3.8 µM
- IC50 [18]: 0.76 µM
Compound: NC(=S)N/N=C/c1ccc(O)cc1

- IC50 [5]: 1420 nM
Compound: NC(=S)N/N=C/c1cc(COCCO)cs1

- IC50 [6]: > 30000 nM
Compound: NC(=S)N/N=C/c1cc(O)cc(O)c1

- IC50 [6]: 900 nM
Compound: CC(C)Oc1ccc(/C=N/NC(N)=S)cc1

- IC50 [6]: 1920 nM
Compound: CCOc1ccc(/C=N/NC(N)=S)cc1

- IC50 [12]: 2020 nM
- Kis [21]: 6.49 µM
- Ki [22]: 1770 nM
- IC50 [14]: 1.54 µM
Compound: CN(C)c1ccc(/C=N/NC(N)=S)cc1

- IC50 [12]: 1820 nM
- Kis [23]: 2.49 µM
- Ki [24]: 1250 nM
- IC50 [14]: 6.7 µM
Compound: NC(=S)N/N=C/c1ccc(Cl)cc1
